This experiment concerns the target T1, recombinant human FXIIa (Homo sapiens, UniProt P00748).
T1 construct: made in house; host or cells: CHO cells
T1 sequence (P00748 373-615 limits assumed): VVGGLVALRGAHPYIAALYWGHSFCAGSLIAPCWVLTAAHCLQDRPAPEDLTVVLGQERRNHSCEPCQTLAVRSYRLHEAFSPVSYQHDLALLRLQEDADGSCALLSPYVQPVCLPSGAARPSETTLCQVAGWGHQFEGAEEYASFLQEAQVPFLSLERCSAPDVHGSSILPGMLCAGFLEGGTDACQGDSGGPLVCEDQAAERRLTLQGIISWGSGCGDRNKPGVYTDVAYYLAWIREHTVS
T1 sequence (P00748 20-372 limits assumed): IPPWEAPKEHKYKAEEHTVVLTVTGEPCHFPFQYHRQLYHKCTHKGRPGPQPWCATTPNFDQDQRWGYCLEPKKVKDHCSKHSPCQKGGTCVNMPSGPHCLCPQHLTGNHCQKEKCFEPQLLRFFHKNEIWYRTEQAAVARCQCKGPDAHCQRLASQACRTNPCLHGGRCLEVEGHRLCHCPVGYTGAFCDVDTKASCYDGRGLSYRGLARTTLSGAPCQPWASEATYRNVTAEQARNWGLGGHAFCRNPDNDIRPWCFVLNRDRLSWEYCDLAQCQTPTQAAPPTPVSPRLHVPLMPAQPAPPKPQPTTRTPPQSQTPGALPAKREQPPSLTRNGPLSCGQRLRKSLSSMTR
In words: Inhibition of recombinant FXIIa (rFXIIa). It counts as biochemical. Conditions: for remaining activity at 0.001 µM: peptide 1 nM; for remaining activity at 0.002 µM: peptide 2 nM. The text has this: The protein sequences for human, rabbit and pig factor XII were taken from the following database entries: human FXII: UniProtKB - P00748; rabbit FXII: NCBI RefSeq - XP_008253687.1; pig FXII: UniProtKB - O97507. The sequences are shown in the Supplementary Methods. DNA encoding the full-length proteins were ordered from Eurofins Genomics. The codons in these sequences were optimized for mammalian expression using the codon optimization tool from Integrated DNA Technologies (IDT). In addition to the FXII gene, the ordered DNA sequences encode a C-terminal GSGS-linker, a His6-tag and a stop codon, and they are flanked by NheI (GCTAGC) and a HindIII (AAGCTT) restriction sites. The entire DNA sequences are provided in the supporting materials. The DNA sequences were cloned into the pEXPR-IBA42 vector downstream of a BM40 signal sequence for secreted expression in mammalian cells. The ligated vector was transformed into DH5 alpha electrocompetent E. coli cells. Plasmid DNA from single clones was sequenced by Sanger sequencing.
1.5 mg plasmid DNA was transfected into 500 ml CHO cells (Thermo Fisher Scientific) in cell suspension culture using polyethylenimine (PEI). Cells were incubated for seven days at 37 °C, 5% CO2 under shaking conditions. The cells were removed by centrifugation and the secreted protein was purified from the supernatant using a nickel-charged immobilized metal affinity chromatography (IMAC) column (5 ml HisTrap FF Crude, GE Healthcare). The column was equilibrated with buffer containing 15 mM imidazole, 100 mM NaCl, 20 mM Tris-HCl, pH 7.4. The pH of the cell culture supernatant was adjusted to 8.0 using NaOH. The supernatant was run through the column at a flow of 5 ml per min. The column was washed with 20 column volumes of equilibration buffer at a flow of 5 ml per min. The protein was eluted with 500 mM imidazole, 100 mM NaCl, 20 mM Tris-HCl, pH 7.4 at a flow of 5 ml per min. The buffer was subsequently exchanged to 100 mM NaCl, 20 mM Tris-HCl, pH 7.4 by three iterative steps of 10-fold dilution and 10-fold concentration using a 10,000 MWCO centrifugal concentrator. The concentration was determined by measuring absorption at 280 nm (ε = 100,000). For the activation of recombinant FXII, 10 μg protein was diluted to a total volume of 10 μl 100 mM NaCl, 20 mM Tris-HCl, pH 7.4 and further diluted with 10 μl of 2-fold concentrated assay buffer (300 mM NaCl, 20 mM MgCl2, 2 mM CaCl2, 20 mM Tris-HCl, 0.02% (v/v) Triton-X100, pH 7.4). Dextran sulfate 500 kDa (DXS500) was added to a final concentration of 0.2 μg μl^−1 and incubated for 1 hour at 37 °C. 5 μg protein was analyzed by SDS-PAGE under reducing conditions.
Protease inhibition assays
The inhibitory activity of peptides was determined by measuring the residual protease activity with a fluorogenic substrate. The assay was performed in buffer containing 10 mM Tris-Cl, pH […]
1% (v/v) DMSO in a volume of 150 µl. FXIIa activity was measured with the fluorogenic substrate Boc-Gln-Gly-Arg-AMC (Bachem) at a final concentration of 50 µM. Mouse α-FXIIa (Molecular Innovations cat # MFXIIA) and human β-FXIIa (Molecular Innovations cat # HFXIIAB) were used at final concentrations of 0.4 nM. The reaction was pipetted as follows: 50 µl of bicyclic peptide in assay buffer were added to 50 µl of FXIIa in assay buffer and incubated for 10 minutes at 25°C before 50 µl of 150 µM fluorogenic substrate in assay buffer were added to measure the residual protease activity with an Infinite M200Pro fluorescence plate reader (excitation at 368 nm, emission at 467 nm; Tecan) for a period of 30 minutes with a read every minute at 25°C. The Tecan software i-control (version 1.1) was used for data analysis. Stock solutions of 1 mM bicyclic peptide were prepared by either dissolving the unpurified cyclization reaction with water or by dissolving purified and lyophilized peptide in water. The bicyclic peptides were serially diluted two-fold using assay buffer. Sigmoidal curves were fitted to the […]

[1] abbreviates: Recombinant human FXII, individual plates, read-out: Residual activity (%).
Where [2] appears, read: read-out: Residual activity (%), Recombinant human FXII, individual plates.

The structures appear in SMILES notation. Like-named read-outs stand apart in the source and are kept apart here. Starred links: 1 amine or outer side, 2 acyl side, 3 side chain; linkers in the order of their positions; H or OH if unused. Positions of bridges follow the written chain, without caps; N, C: chain ends. Non-standard residues stand in square brackets, D forms with d. Residues, ends and D or L forms follow the SMILES beside them. TATA = O=C(CC[*:1])N1CN(C(=O)CC[*:2])CN(C(=O)CC[*:3])C1; Phe(4-F) = N[C@@H](Cc1ccc(F)cc1)C(=O)O; β3hR = N=C(N)NCCC[C@H](N)CC(=O)O

Turning to `CC(C)C[C@@H]1NC(=O)[C@H](CCC(N)=O)NC(=O)[C@H](CCCNC(=N)N)NC(=O)[C@@H]2CSCCC(=O)N3CN(CN(C3)C(=O)CCSC[C@H](NC(=O)[C@@H](N)CCCNC(=N)N)C(=O)N[C@@H](Cc3ccccc3)C(=O)N[C@@H](CCCNC(=N)N)C(=O)N[C@@H](CC(C)C)C(=O)N3CCC[C@H]3C(=O)N2)C(=O)CCSC[C@@H](C(=O)N[C@@H](CCCNC(=N)N)C(N)=O)NC(=O)[C@H](CCCNC(=N)N)NC1=O` [FXII618], under setting [1], the remaining activity at 0.001 µM turned out to be 87.7% and the remaining activity at 0.002 µM came out at 78.5%. Further, the remaining activity at 0.004 µM (Recombinant human FXII, peptide 4 nM, individual plates, read-out: Residual activity (%)) is 65.2%. For the same molecule, the remaining activity at 0.008 µM (Recombinant human FXII, peptide 8 nM, individual plates, read-out: Residual activity (%)) was 47.5%. In addition, the remaining activity at […] (Recombinant human FXII, peptide 16 nM, individual plates, read-out: Residual activity (%)) was 30%. For the same molecule, the remaining activity at […] (Recombinant human FXII, peptide 32 nM, individual plates, read-out: Residual activity (%)) amounted to 16.5%. In addition, where the note is “Recombinant human FXII, peptide 64 nM, individual plates, read-out: Residual activity (%)”, the remaining activity at 0.064 µM stood at 6.9%.
In the case of `CC(C)C[C@@H]1NC(=O)[C@H](CCC(N)=O)NC(=O)[C@H](Cc2c[nH]cn2)NC(=O)[C@@H]2CSCCC(=O)N3CN(CN(C3)C(=O)CCSC[C@H](NC(=O)[C@@H](CO)NC(=O)[C@H](N)CCCNC(=N)N)C(=O)N[C@@H](Cc3ccc(F)cc3)C(=O)N[C@@H](CCCNC(=N)N)C(=O)N[C@@H](CC(C)C)C(=O)N3CCC[C@H]3C(=O)N2)C(=O)CCSC[C@@H](C(N)=O)NC(=O)C[C@H](CCCNC(=N)N)NC1=O` [FXII900] (H-[dR][dS]C[Phe(4-F)]RLPCHQL[β3hR]C-NH2; linker 3-8-13 via TATA), the Ki came out at 0.51 nM. For the same molecule, under “read-out: Residual activity (%), Recombinant human FXII, peptide 0.0625 nM, individual plates”, the remaining activity at 62.5 pM was found to be 93.8%. For the same molecule, the remaining activity at 0.000125 µM (read-out: Residual activity (%), Recombinant human FXII, peptide 0.125 nM, individual plates) is 87.9%. The remaining activity at 0.0005 µM (read-out: Residual activity (%), Recombinant human FXII, peptide 0.5 nM, individual plates) worked out at 61.1%. Further, under setting [2], the remaining activity at 0.001 µM turned out to be 35.5% and the remaining activity at 0.002 µM amounted to 10.4%.

Usually Ki stands for a measure of affinity in units of concentration, obtained from inhibition or displacement.
